The subject of data set [1] is Q7 cells. In words: Cellular lipid oxidation assay (BODIPY 581/591 C11, RSL3-treated Q7 cells). The settings on record: RSL3 2 μM, 6-point titration, time-lapse microscopy. The class given is cell-based, mouse. As for the experimental part: Ferroptosis was induced by RSL3 (2 μM final concentration) in Q7 cells as described above. The protective activity of co-treated compounds was assessed also as described above. The rate of cellular lipid oxidation after GPX4 inhibition was assessed by monitoring the time-dependent changes in green fluorescence of cells pre-labeled with BODIPY™ 581/591 C11 dye (5 μM, 30-minute labeling period; Thermo Fisher/Invitrogen) using the IncuCyte S3 live-cell imaging apparatus (Sartorius) using a 10x objective. Cells (three images per field; at least three replicate wells per condition) were imaged once hourly for up to 18 hours after compound and RSL3 addition. Quantification of cell images was performed using the IncuCyte Zoom software using the Basic Analyzer tool which utilized an algorithm that calculated the total green-positive area per well where “green-positive” was defined as 1.45 times the local background-subtracted fluorescent signal. After a 2-3-hour lag period post-RSL3 treatment, the cellular green fluorescence signal began increasing. The rate of change in total green-positive area per well from 3–9 hours post-compound treatment was calculated, then expressed relative to that observed in the RSL3-only control treatment group, which was defined as 100%.

The target of data set [2] is T1, Rabbit 15-lipoxygenase (rLOX15) (Oryctolagus cuniculus, UniProt P12530).
T1 construct: purchased Enzo Life Sciences, Inc. BML-PL015
T1 sequence (P12530 1-663): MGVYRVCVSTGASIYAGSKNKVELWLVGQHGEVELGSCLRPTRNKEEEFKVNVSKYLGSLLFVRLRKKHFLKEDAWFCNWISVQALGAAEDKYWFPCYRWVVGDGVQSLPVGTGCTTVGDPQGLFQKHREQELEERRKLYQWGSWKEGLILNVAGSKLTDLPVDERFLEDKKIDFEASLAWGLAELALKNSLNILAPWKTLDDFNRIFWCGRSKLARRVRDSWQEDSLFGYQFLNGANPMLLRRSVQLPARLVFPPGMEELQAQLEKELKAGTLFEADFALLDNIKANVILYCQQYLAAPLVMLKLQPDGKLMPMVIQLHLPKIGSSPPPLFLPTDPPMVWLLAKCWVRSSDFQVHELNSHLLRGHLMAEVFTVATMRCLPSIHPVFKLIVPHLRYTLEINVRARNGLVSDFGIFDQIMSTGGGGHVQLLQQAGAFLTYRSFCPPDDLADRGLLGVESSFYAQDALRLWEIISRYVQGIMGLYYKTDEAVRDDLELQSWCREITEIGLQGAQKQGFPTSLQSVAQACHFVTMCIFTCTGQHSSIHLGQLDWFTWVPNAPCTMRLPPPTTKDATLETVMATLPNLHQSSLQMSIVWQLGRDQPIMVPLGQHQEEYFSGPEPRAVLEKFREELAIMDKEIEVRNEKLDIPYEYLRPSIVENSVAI
As to the kind of experiment: Lipoxygenase enzyme inhibition assay. In kind it is biochemical. The settings on record: rabbit 15-LO. On the procedure:
Rabbit 15-lipoxygenase (rLOX15, part number BML-PL015, lot number 3-P9009a) was obtained from Enzo Life Sciences, Inc. Sodium cholate (part number C6445, lot number 094K0209) was obtained from Sigma-Aldrich.
Stock solutions of test compounds were prepared in DMSO and then diluted to final assay concentrations in cholate mix such that final cholate and DMSO concentrations were maintained at 0.2%.

A short description of data set [3]: ORAC (oxygen radical absorbance capacity) assay. The settings on record: average of 25 and 12.5 μM compound; mean, SEM, n = 6. As for the experimental part: ORAC assay kits were purchased from Cell Biolabs. Assays were performed per the manufacturer’s instructions for lipophilic samples with minor modifications. DMSO stock solutions of compounds were diluted in an anaerobic glovebox to final concentrations of 25 and 12.5 μM in triplicate. A standard curve of Trolox® between 0–100 μM in triplicate per concentration was also generated on each assay plate. Diluted compounds and standards were removed from the glovebox and reactions initiated by addition of aerobic fluorescein reagent and radical initiator. Fluorescein fluorescence was monitored at excitation wavelength of 480 nm and emission wavelength of 520 nm every minute for one hour. AUC analysis was performed as described in the kit protocol. The “Trolox equivalents” at each concentration of test compound were calculated and the average Trolox equivalents at the two compound concentrations are presented. The errors were determined by propagating errors from the SEMs of the triplicate determinations to the averages across the two triplicate determinations.

Data set [4] can be described thus: Radical-trapping antioxidant (RTA) activity assay in DOPC liposomes. The conditions noted are these: 50 μM compound, 2 mol% in DOPC liposomes, BODIPY 581/591 C11 quenching; liposome-only control = 1.
For data set [5], the target named is T2, Soybean 15-lipoxygenase (SLO) (Glycine max, UniProt P08170).
T2 construct: purchased Cayman Chemical 60700
T2 sequence (P08170 1-839): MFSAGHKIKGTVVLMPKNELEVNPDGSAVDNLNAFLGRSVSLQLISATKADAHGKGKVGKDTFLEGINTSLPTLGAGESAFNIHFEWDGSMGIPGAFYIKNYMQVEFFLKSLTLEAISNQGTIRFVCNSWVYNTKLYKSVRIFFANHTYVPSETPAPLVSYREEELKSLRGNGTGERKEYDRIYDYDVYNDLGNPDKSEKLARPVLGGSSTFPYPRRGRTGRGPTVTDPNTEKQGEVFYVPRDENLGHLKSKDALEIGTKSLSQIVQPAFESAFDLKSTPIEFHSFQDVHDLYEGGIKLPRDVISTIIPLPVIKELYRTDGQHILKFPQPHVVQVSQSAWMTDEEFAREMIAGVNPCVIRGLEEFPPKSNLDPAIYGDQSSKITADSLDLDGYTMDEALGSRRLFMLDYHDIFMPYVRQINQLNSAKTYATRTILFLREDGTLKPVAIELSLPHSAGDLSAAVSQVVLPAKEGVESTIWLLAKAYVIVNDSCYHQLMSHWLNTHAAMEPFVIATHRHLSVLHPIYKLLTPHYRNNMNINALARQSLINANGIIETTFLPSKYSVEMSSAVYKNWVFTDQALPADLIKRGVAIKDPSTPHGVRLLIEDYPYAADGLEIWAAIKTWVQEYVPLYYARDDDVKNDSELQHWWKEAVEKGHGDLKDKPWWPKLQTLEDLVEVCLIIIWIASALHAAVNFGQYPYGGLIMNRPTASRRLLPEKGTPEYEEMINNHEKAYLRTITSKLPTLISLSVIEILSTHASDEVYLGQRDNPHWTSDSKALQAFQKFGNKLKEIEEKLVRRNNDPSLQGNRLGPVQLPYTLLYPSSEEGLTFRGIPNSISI
In words: EPR spectroscopy of lipoxygenase active-site iron redox state. In kind it is biochemical. The settings on record: SLO oxidised with lipid-OOH set to 100% Fe3+; addition of compound. On the procedure: Lipoxygenase: Soybean 15-lipoxygenase (SLO) was buffer exchanged into 50 mM borate buffer, pH 9.0 containing 10% (v/v) glycerol. The resulting protein solution was concentrated to approximately 100 μM, based upon the supplier’s activity per mL and specific activity per mg. The active-site iron oxidation state was further evaluated by EPR under three treatment conditions: 1) No treatment, 2) oxidation with 3-fold molar excess of lipid hydroperoxide (final concentration of 300 μM) from an ethanol stock, 3) oxidation with 3-fold molar excess of lipid hydroperoxide followed by 10-fold molar excess of αTHQ or αT3HQ (final concentration of 1 mM) from a DMSO stock. All samples contained the same final concentrations of ethanol and DMSO as sample 3. The EPR spectra of buffer alone were also evaluated to allow for baseline subtraction.
CW-EPR spectra were recorded at 150 K on a Bruker ELEXYS E540 spectrometer fitted with an X-band microwave bridge, a Super High Sensitivity Resonator (SHQ), and a Nitrogen VT apparatus. The spectra were recorded at 9.43 GHz with 1.002 mW microwave power, 10 G modulation amplitude, 100 kHz modulation frequency, 25 scans.

Data set [6] concerns Mouse striatal Q7 cells (STHdhQ7/Q7). As to the kind of experiment: RSL3 ferroptosis cell rescue (cellular survival assay, CellTiter-Glo).
The subject of data set [7] is Q7 cells. As to the kind of experiment: Intracellular quantification of αT, αTQ and αTHQ in Q7 cells (LC-MS/MS, succinate capping). The settings on record: all cases tested (basal, αT- or αTQ-supplemented).

In general, IC50 refers to the concentration needed to halve the response being measured. Usually EC50 stands for the midpoint of the concentration-response curve.

Take `Cc1c(C)c(O)c(CC[C@](C)(O)CCC[C@H](C)CCC[C@H](C)CCCC(C)C)c(C)c1O` [αTHQ, α-tocopherol hydroquinone]: the “effect on RSL3-induced lipid oxidation (BODIPY 581/591 C11 oxidation)” value in the data set with Q7 cells [1] is listed as “prevented”. For the same compound, the “15-LO inhibitory potency fold compared with αTQ, αT, or αTCC” value in data set [2] is on record as > 40 fold. The compound also registered an IC50 in data set [2] (50 μM arachidonic acid substrate) of 2450 nM. For the same compound, the activity at 100 µM in data set [2] (compound 100 μM, read-out: 15-Lipoxygenase Enzyme Assay % activity at 100 μM) is 15%. The “ORAC Antioxidant Activity Assay Trolox Equiv.” value in data set [3] is listed as 0.106 Trolox Equiv. The “Radical Trapping Assay AUC (Rel. Control)” value in data set [4] is 1.855. Also, the “decrease in the SLO-Fe3+ signal” value in data set [5] was 50%. Besides, the EC50 in data set [6] (Mus musculus, 18 h, read-out: RSL3 Ferroptosis Cell Assay Average EC50, Q7 cells, RSL3 2 μM, 18 h co-treatment, CellTiter-Glo 2.0) is 90 ± 30 nM. Besides, the “fold more potent than αT in preventing ferroptotic cell death” value in data set [6] (Q7 cells, RSL3, EC50 ratio vs αT) stood at 57 fold. Further, in the data set with Q7 cells [7], the “cellular αTHQ exposures exceed those of αTQ” value is given as 3- to 4 fold.
